Test results: patent US20140255432A1, “SILVESTROL, SILVESTROL ANALOGS AND USES THEREOF” (priority 2011, published 2014)

Experiments:
NK cells against LCL = experiment: Antibody-dependent cell-mediated cytotoxicity (ADCC) assay of NK cells with rituximab; format: cell-based, human
Experimental: Non-radioactive flow cytometry-based cytotoxicity assays have been described previously (Godoy-Ramirez 2005; Helguera 2011). Co-cultures of PBMC and irradiated LCL were grown in the presence or absence of silvestrol for 14 d and collected. Fresh autologous LCL cells were stained with 200 nM carboxyfluorescein diacetate succinimidyl ester (CFSE) (CellTrace™, Invitrogen) for 15 min at 25° C. prior to being mixed with effectors from the irradiated co-cultures at an effector:target (E:T) ratio of 20:1 for 4 hr at 37° C. After the incubation, cells were stained with 7-aminoactinomycin D (7AAD) (BD Biosciences, San Diego, Calif.) and washed. Cytotoxicity was measured by gating on the CFSE-positive events and measuring the 7AAD-positive cells. (See FIGS. 31 and 32). For antibody-dependent cell-mediated cytotoxicity (ADCC) assays the same technique was used; however, the co-cultured effectors were natural killer (NK) cell-enriched and were incubated in the presence or absence of 5 μg/mL rituximab or herceptin (negative control) (Genentech, Inc., South San Francisco, Calif.) for 4 hr at 37° C.
Next, antibody-dependent cell-mediated cytotoxicity (ADCC) assays were utilized to measure the innate immune response of NK cells to LCL in the presence of silvestrol. […] Fresh CFSE-labeled LCL targets and autologous NK cells were incubated with the monoclonal antibodies rituximab (anti-CD20, expressed on LCL) or herceptin (anti-HER2, not expressed on immune cells). After 4 hr, ADCC was evaluated using CFSE and 7-AAD staining as described above. Specifically, cytotoxicity was measured by CFSE^+/7AAD^+ events. Data are shown relative to the positive control (effectors+targets+ritux) and are the averages of three individual experiments. Bars show −/+ standard deviation.
To determine the acute effect of silvestrol on ADCC, fresh (non-autologous) NK cells were obtained from enriched leukocyte products, incubated 18 hr with or without 10 nM silvestrol, then washed and mixed with CFSE-stained LCL. […]

[1] = Pharmacokinetics work in mice; format: in vivo
[2] = system: immune effector subsets (CD3+/CD4+, CD3+/CD8+, CD3-/CD56+); experiment: Irradiated LCL / autologous PBMC co-cultures, flow cytometry; format: cell-based, human; settings: 14 days
Experimental: Lymphoblastoid cell lines (LCL) were derived in vivo by engrafting severe combined immune-deficient (SCID) mice (Taconic, Hudson N.Y.) with human peripheral blood mononuclear cells (PBMC) from a healthy EBV-positive donor as described (Rowe 1991; Baiocchi 1994). Co-cultures (Cocx) were created by mixing 5×10^4 LCL (either non-irradiated or irradiated with 14000 rad) per well with equal numbers of autologous PBMC in 96-well plates. Cultures were grown in the presence of 10 U/mL IL-2 and were given a single dose of silvestrol and cultured for 10-14 days.
Cells from irradiated or non-irradiated co-cultures were co-stained with LIVE/DEAD cell stain (Invitrogen, Grand Island, N.Y.) and hu-CD3-APC and either hu-CD4-PE, hu-CD-8-PE, hu-CD19-PE (BD Biosciences, San Diego, Calif.), or hu-CD56-PE (Beckman Coulter, Brea, Calif.). Live events were gathered by gating on cells negative for the LIVE/DEAD stain on an FC500 cytometer (Beckman Coulter). Cell viability was also measured by flow cytometry at 24, 72, and 120 hr using annexin-V-FITC and propidium iodide (PI) according to the manufacturer's instructions (BD Biosciences).
To explore the immune modulatory activity of silvestrol in EBV-LPD, in vitro co-cultures (CoCx) were used. These cultures were created by lethally irradiating LCL lines and mixing them at a ratio of 1:1 with PBMC from the same healthy donor from which the LCL was derived. The PBMC are activated and expand in response to the antigenic stimuli from the EBV-infected LCL (Rowe 1991; Baiocchi 1994; Mosier 1995). CoCx created using three LCL and their respective autologous PBMC were incubated in the presence of 10 U/mL IL-2 and treated with 0 (vehicle only), 2, 5, or 10 nM silvestrol for 14 days. Flow cytometric analysis was conducted. Cells were gated on Live events were gathered by gating on cells negative for the LIVE/DEAD stain. Data are expressed as percentage of viable population, relative to the vehicle CoCx condition, for total cells, CD3^+/CD4^+, CD3^+/C8^+, and CD3^−CD56^+ cells. Results shown are the averages from three individual CoCx. […] As the irradiated LCL were absent by this time, silvestrol allowed for expansion of the normal effector population following LCL exposure.

IFNgamma = IFNgamma release / production of immune effector cells; format: cell-based, human
Experimental: CoCx were incubated in the presence of 10 U/ml IL-2 and given a single dose of 0 (vehicle only), 2, 5, or 10 nM silvestrol. At day 14 cells were (A) stimulated non-specifically by addition of 12-O-tetradecanoylphorbol-13-acetate (TPA) and ionomycin (INO) to assay for the ability to release interferon gamma (IFNγ) or (B) by the addition of equal numbers autologous LCL to measure cell mediated response to antigen-induced IFNγ production. IFNγ production was measured by […] flow following four hour stimulation.
FIG. 41 presents data regarding NK cytotoxicity of K562 cells. […] FIG. 42 presents data regarding the cytotoxicity of LCLs pretreated with BZLF 1. […] BZLF1 antigen pulsed LCLs promoted enhanced killing in untreated and silvestrol-treated CTLs. FIG. 43 presents data relating to CD4 IFNgamma release with LCL pretreated with BZLF1. […] FIG. 44 presents data relating to CD4 IFNgamma release with LCL pretreated with BZLF 1. […] FIG. 45 presents data relating to interleukin-6 induction by silvestrol. […] FIG. 46 presents data relating to a change in LMP-1 expression following silvestrol treatment. […] Three cell lines were examined on days 1, 3, and 5 following treatment. FIG. 47 presents data relating to a change in EBNA1 expression following silvestrol treatment. Three cell lines were examined on days 1, 3, and 5 following treatment.

For `COC(=O)[C@H]1[C@@H](O)[C@@]2(O)c3c(OC)cc(O[C@@H]4O[C@@H]([C@H](O)CO)CO[C@H]4OC)cc3O[C@@]2(c2ccc(OC)cc2)[C@@H]1c1ccccc1` [silvestrol], the “ADCC activity of NK cells incubated in media vs. silvestrol” value (NK cells against LCL; 10 nM, 24 hr pretreatment, DC9 LCLs (FIG. 19)) was “equivalent ADCC activity”, the “ADCC activity of freshly isolated (non-autologous) NK cells” value (NK cells against LCL; 18 hr pre-incubation with 10 nM, p=0.854) was “no observable effect” and the “rituximab-dependent cytotoxic activity of NK cells, expanded with vs. without silvestrol” value (NK cells against LCL; autologous NK cells, 10 nM for 14 days, p=0.838) was “similar”. The “concentration attainable in vivo” value [1] was 0.01 µM, the “total number of cells expanded in CoCx” value ([2]; 10 nM, 10 U/mL IL-2) was “lower than in the vehicle controls” and the “CD4+ T helper cell population relative to untreated CoCx” value ([2]; 2, 5, 10 nM) was “mild decrease”. For the same compound, the “CD8+ cytotoxic T cell population relative to untreated CoCx” value ([2]; 2, 5, 10 nM) was “mild decrease”, the “CD56+ natural killer cell population relative to untreated CoCx” value ([2]; 2, 5, 10 nM) was “relative increase” and the “IFNgamma release of CD4+ T cells” value (IFNgamma; 10 nM, LCL pretreated with BZLF1 (FIG. 43)) was “not adversely affected”. For the same compound, the “IFN production of immune effector subsets against irradiated autologous EBV+ LCL (DC9)” value (IFNgamma; low concentrations (2-10 nM) (FIG. 18)) was “not abrogated”.
